Measured values taken from PubChem BioAssay AID1918932 (Molecular Pharmacology Branch, DTP, NCI, 2023).
Values joined by “and” are separate entries in the source; they are usually repeats but may differ in a detail not shown here. Equal values may be shown once. Each block holds one compound with its values, some of them ahead of it.

System: 171881-019-R-J1-PDC complex spheroid viability
Test: Anticancer human tumor 171881-019-R-J1-PDC patient-derived invasive breast carcinoma cell line growth inhibition
Settings: for viability, T/C: stronger effect = lower value
From the text: Multicellular complex tumor spheroid response to LSD1 Inhibitor Iadademstat in combination with a variety of drugs and investigational agents in selected tumor cell lines
The current study was undertaken to assess response to LSD1 inhibitors in combination with standard-of-care drugs and investigational agents in solid tumor complex spheroid models as well as in the K-562 leukemia. Complex spheroids include a stromal component modeled by human endothelial cells (HUVEC) and fibroblasts modeled by human mesenchymal stem cells (MSCs). The concentration ranges selected for each drug and investigational agent were based upon clinically achievable concentrations if the clinical Cmax of the agent was known.
Compounds. The drugs and investigational agents used in this study are listed on Table 1. All of the agents used, including staurosporine (NSC755774) and gemcitabine (NSC613327), were obtained from the Developmental Therapeutics Program, NCI. FDA-approved anticancer drugs are available from the NCI at http://dtp.nci.nih.gov/branches/dscb/oncology_drugset_explanation.html. Drugs and investigational agents were >95% pure by proton nuclear magnetic resonance (NMR) and liquid chromatography/mass spectrometry (LC/MS). Stock solutions were prepared at 400x in DMSO, stored at -70 degrees C, and diluted in fresh medium prior to their use. The final concentration of DMSO in cell culture wells never exceeded 0.25% (v/v). The FDA-approved anticancer drug set is available from the Developmental Therapeutics Program at https://dtp.cancer.gov/organization/dscb/obtaining/available_plates.htm. All drugs and investigational agents were tested over a range starting from a high concentration at or near the clinical Cmax and decreasing in half-log increments. If the clinical Cmax for an agent had not been determined, the highest concentration tested was 10 microM.
Cell Lines. The patient-derived cancer cell (PDC) lines: 292921-168-R-J2-PDC, K24384-001-R-PDC, and 521955-158-R2-J5-PDC pancreatic carcinomas, 556581-035-R-J1 ovarian carcinoma, 324938-238-R-J1-PDC, 855422-203-R-J1-PDC and 883617-216-R-J1-PDC urothelial bladder carcinomas, 743489-274-T-PDC renal cell carcinoma, 138582-R-J1 Merkel cell tumor, K60290-347-R-J1 and K57222-313-R-J1-PDC glioblastomas, 653999-131-R-J2-PDC, LG0703-F948-PDC, and 349418-098-R-PDC non-small cell lung carcinomas, 885512-296-R-J2-PDC, 171881-019-R-J1-PDC breast carcinomas and 186277-243-T-J2-PDC and 233499-124-R-J2-PDC colon carcinomas were obtained from the NCI Patient-Derived Models Repository (PDMR, https://pdmr.cancer.gov). The established cell lines NCI/ADR-RES (RRID:CVCL_14520 and OVCAR-5 (RRID:CVCL_1628) ovarian carcinomas, 786-O (RRID:CVCL_1051) and A498 (RRID:CVCL_A498) renal cell carcinoma, NCI-H211 (ATCC, cat. CRL-5824; RRID:CVCL_1529), NCI-H196 (ATCC, cat. CRL-5823, RRID:CVCL_1509), SW 1271 (ATCC, cat. CRL-2177, RRID:CVCL_1716) and NCI-H1876 (ATCC, cat. CRL-5902, RRID:CVCL_1503) small cell lung carcinomas, MDA-MB-231 (RRID:CVCL_0062) and MDA-MB-468 (RRID:CVCL_0419)breast carcinomas (10-12). Pooled donor human umbilical vein endothelial cells (HUVEC, Lonza, cat. CC-2519) and human mesenchymal stem cells (hMSC, Lonza, cat. PT-2501) were purchased from Lonza (Walkersville, MD).
Cell Culture. All cells were maintained in an incubator at 37 degrees C and 5% CO2 with 95% humidity. The PDC lines were cultured according to standard operating procedures established by the NCI PDMR (https://pdmr.cancer.gov). Briefly all PDCs were thawed and cultured in Matrigel-coated flasks prepared with a working solution of 1X Ham's F-12 nutrient mix, without supplementation (Invitrogen, Waltham, MA, cat. 11765054), 100 U/mL penicillin-streptomycin (Invitrogen, cat. 15140122), and 2.5% Matrigel (Corning Inc., Corning, NY, cat. 354248) for the first three passages. […]
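Also: spheroids exposed to agents for 7 days after 3 days growth.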

Compound: NC1CCC(NC2CC2c2ccccc2)CC1 (configuration not stated)
viability, T/C (compound 0.316 µM): 79.8% and 83.8% and 81.9% | IC50 (compound alone, run of 02/15/2022): > 10000 nM

Compound: Nc1ccn(C2OC(CO)C(O)C2(F)F)c(=O)n1 (configuration not stated)
viability, T/C (compound 0.000949 µM): 73.3% and 67.7% | viability, T/C (compound 0.003 µM): 53.2% and 58.2% | viability, T/C (compound 0.00949 µM): 57.9% and 55.9% | viability, T/C (compound 0.03 µM): 62.1% and 61.5% | viability, T/C (compound 0.0949 µM): 64.6% and 63.9% | viability, T/C (compound 0.3 µM): 58.1% and 64.4% | IC50 (curve of compound): > 300 nM

Compound: Nc1ncn(C2CC(O)C(CO)O2)c(=O)n1 (configuration not stated)
viability, T/C (compound 0.00316 µM): 109% and 97.4% | viability, T/C (compound 0.01 µM): 122% and 97.5% | viability, T/C (compound 0.0316 µM): 128% and 95.1% | viability, T/C (compound 0.1 µM): 130% and 93.4% | viability, T/C (compound 0.316 µM): 120% and 91.2% | viability, T/C (compound 1 µM): 105% and 81.2% | IC50 (curve of compound): > 1000 nM

Compound: Nc1ncn(C2CC(O)C(CO)S2)c(=O)n1 (configuration not stated)
viability, T/C (compound 0.000949 µM): 95.1% and 102% | viability, T/C (compound 0.003 µM): 98% and 105% | viability, T/C (compound 0.00949 µM): 136% and 94.5% | viability, T/C (compound 0.03 µM): 124% and 76.7% | viability, T/C (compound 0.0949 µM): 73% and 53.8% | viability, T/C (compound 0.3 µM): 38% and 34.8% | IC50 (curve of compound): 202 nM and 115 nM

Compound: O=C(C=Cc1cccc(S(=O)(=O)Nc2ccccc2)c1)NO
viability, T/C (compound 0.00949 µM): 95.8% and 103% | viability, T/C (compound 0.03 µM): 96.6% and 93% | viability, T/C (compound 0.0949 µM): 111% and 99.2% | viability, T/C (compound 0.3 µM): 72.5% and 65.1% | viability, T/C (compound 0.949 µM): 0.88% and 1.85% | viability, T/C (compound 3 µM): 0.2% and 0.16% | IC50 (curve of compound): 430 nM and 395 nM

Second part, led by results:

IC50 (curve of compound): 798 nM and 599 nM
Compound: COc1ccc([C@@H](O)c2cc(-c3ncnc4cc(N5CCOCC5)ccc34)c(F)cc2Cl)nn1
viability, T/C (compound 0.0316 µM): 101% and 98.9% | viability, T/C (compound 0.1 µM): 128% and 95.7% | viability, T/C (compound 0.316 µM): 98.3% and 76% | viability, T/C (compound 1 µM): 38.5% and 29.6% | viability, T/C (compound 3.16 µM): 7.38% and 8.2% | viability, T/C (compound 10 µM): 6.64% and 11.3%

IC50 (curve of compound): > 100 nM
Compound: Cn1ncnc1C1c2n[nH]c(=O)c3cc(F)cc(c23)NC1c1ccc(F)cc1 (configuration not stated)
viability, T/C (compound 0.000316 µM): 92.8% and 99.4% | viability, T/C (compound 0.001 µM): 103% and 104% | viability, T/C (compound 0.00316 µM): 88% and 103% | viability, T/C (compound 0.01 µM): 102% and 99% | viability, T/C (compound 0.0316 µM): 82.2% and 97.7% | viability, T/C (compound 0.1 µM): 97.2% and 98.6%

IC50 (curve of compound): 26.9 nM and < 9.49 nM
Compound: NS(=O)(=O)OCC1CC(n2ccc3c(NC4CCc5ccccc54)ncnc32)CC1O (configuration not stated)
viability, T/C (compound 0.00949 µM): 101% and 40.4% | viability, T/C (compound 0.03 µM): 44.4% and 34.8% | viability, T/C (compound 0.0949 µM): 25.8% and 27.8% | viability, T/C (compound 0.3 µM): 24.2% and 25.3% | viability, T/C (compound 0.949 µM): 25.5% and 29.9% | viability, T/C (compound 3 µM): 22.4% and 21.6%

IC50 (curve of compound): 278 nM and 542 nM
Compound: Nc1ccccc1NC(=O)c1ccc(CNC(=O)OCc2cccnc2)cc1
viability, T/C (compound 0.00949 µM): 96.1% and 95.3% | viability, T/C (compound 0.03 µM): 102% and 98.5% | viability, T/C (compound 0.0949 µM): 135% and 108% | viability, T/C (compound 0.3 µM): 45.6% and 92.6% | viability, T/C (compound 0.949 µM): 2.72% and 9.58% | viability, T/C (compound 3 µM): 0.41% and 0.94%

IC50 (curve of compound): < 3.16 nM
Compound: O=C(C=Cn1cnc(-c2cc(C(F)(F)F)cc(C(F)(F)F)c2)n1)NNc1cnccn1
viability, T/C (compound 0.00316 µM): 16.8% and 17.6% | viability, T/C (compound 0.01 µM): 12.1% and 12.7% | viability, T/C (compound 0.0316 µM): 4.83% and 4.44% | viability, T/C (compound 0.1 µM): 1.49% and 1.82% | viability, T/C (compound 0.316 µM): 1.62% and 1.88% | viability, T/C (compound 1 µM): 1.54% and 1.63%

IC50 (curve of compound): > 10000 nM and 3200 nM
Compound: O=C(c1cc(Cc2n[nH]c(=O)c3ccccc23)ccc1F)N1CCN(C(=O)C2CC2)CC1
viability, T/C (compound 0.0316 µM): 90.8% and 96.5% | viability, T/C (compound 0.1 µM): 94.5% and 103% | viability, T/C (compound 0.316 µM): 83.5% and 95.9% | viability, T/C (compound 1 µM): 91.6% and 83% | viability, T/C (compound 3.16 µM): 82.8% and 50.5% | viability, T/C (compound 10 µM): 101% and 21.5%
